In US10759781B2, “Substituted guanidine derivatives” (UBE INDUSTRIES, LTD., priority 2015, dated 2020) one finds inhibition in vivo and inhibition data, which are given here for 19 compounds.

Each structure is given as a SMILES string. Where a name gives a salt, the structure may show the parent alone.

The target in one assay is T1, Rat Plasma VAP-1 (Rattus norvegicus, UniProt O08590).
T1 construct: from tissue; host or cells: plasma of SD male rats (7-12 weeks old) after oral dosing
T1 sequence (O08590 28-763 limits assumed): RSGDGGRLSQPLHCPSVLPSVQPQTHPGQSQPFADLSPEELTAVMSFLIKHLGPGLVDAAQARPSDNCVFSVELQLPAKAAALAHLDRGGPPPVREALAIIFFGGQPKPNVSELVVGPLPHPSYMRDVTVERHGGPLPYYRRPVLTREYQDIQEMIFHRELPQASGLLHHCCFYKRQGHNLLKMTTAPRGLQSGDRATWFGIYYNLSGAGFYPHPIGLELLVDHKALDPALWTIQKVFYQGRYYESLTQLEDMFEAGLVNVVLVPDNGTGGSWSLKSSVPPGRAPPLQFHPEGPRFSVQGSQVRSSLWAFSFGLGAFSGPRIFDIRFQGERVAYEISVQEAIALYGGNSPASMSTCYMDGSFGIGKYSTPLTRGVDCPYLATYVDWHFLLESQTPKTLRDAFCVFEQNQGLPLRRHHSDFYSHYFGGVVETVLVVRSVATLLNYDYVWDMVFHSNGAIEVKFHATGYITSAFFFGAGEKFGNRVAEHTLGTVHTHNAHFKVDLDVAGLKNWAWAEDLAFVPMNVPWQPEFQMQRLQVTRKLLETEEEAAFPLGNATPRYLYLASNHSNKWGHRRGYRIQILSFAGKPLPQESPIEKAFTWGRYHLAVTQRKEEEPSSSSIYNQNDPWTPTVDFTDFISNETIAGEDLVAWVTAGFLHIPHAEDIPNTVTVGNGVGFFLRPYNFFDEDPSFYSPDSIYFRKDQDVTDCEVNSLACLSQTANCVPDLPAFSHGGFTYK
Description: (Ex vivo) rat plasma VAP-1 inhibition test after oral administration of the compound. Format: in vivo. Particulars: 3 hours after oral administration, SD male rats, read-out: inhibition ratio (plasma VAP-1, ex vivo). The procedure:
(Ex Vivo) Rat Plasma VAP-1 Inhibition Test after Oral Administration of the Compound
The compound was orally administered (0.3-10 mg/kg) to 7-12 week old SD male rats in the non-fasting state. Under anesthesia, the blood was collected in heparin tubes from the jugular vein before the administration and 3, 8 and 24 hours after the administration. The blood was centrifuged at 14000 rpm for 10 minutes to get plasma. The VAP-1 enzyme activity in the plasma was measured by radiochemical enzyme assay.
The radiochemical enzyme assay was conducted by modifying the method of P. H. Yu et al. (Diabetologia 40 1243 (1997)). ^14C-benzylamine (2.5 μM) was added to the obtained plasma, and was incubated at 37° C. for 3 hours. The reaction was terminated by the addition of 100 μL of 2 M citric acid solution to the reaction solution. The oxidative product was extracted using a toluene/ethyl acetate mixture and the radioactivity was measured with a liquid scintillation counter. The inhibition ratio of the compound was calculated using the following equation. Inhibition ratio={1−[Plasma VAP-1 activity after administration of the compound]/[Plasma VAP-1 activity before administration]}×100

In the next assay the target is T2, Human VAP-1 enzyme (Homo sapiens, UniProt Q16853).
T2 construct: purchased R&D Systems, Inc
T2 sequence (Q16853 1-763): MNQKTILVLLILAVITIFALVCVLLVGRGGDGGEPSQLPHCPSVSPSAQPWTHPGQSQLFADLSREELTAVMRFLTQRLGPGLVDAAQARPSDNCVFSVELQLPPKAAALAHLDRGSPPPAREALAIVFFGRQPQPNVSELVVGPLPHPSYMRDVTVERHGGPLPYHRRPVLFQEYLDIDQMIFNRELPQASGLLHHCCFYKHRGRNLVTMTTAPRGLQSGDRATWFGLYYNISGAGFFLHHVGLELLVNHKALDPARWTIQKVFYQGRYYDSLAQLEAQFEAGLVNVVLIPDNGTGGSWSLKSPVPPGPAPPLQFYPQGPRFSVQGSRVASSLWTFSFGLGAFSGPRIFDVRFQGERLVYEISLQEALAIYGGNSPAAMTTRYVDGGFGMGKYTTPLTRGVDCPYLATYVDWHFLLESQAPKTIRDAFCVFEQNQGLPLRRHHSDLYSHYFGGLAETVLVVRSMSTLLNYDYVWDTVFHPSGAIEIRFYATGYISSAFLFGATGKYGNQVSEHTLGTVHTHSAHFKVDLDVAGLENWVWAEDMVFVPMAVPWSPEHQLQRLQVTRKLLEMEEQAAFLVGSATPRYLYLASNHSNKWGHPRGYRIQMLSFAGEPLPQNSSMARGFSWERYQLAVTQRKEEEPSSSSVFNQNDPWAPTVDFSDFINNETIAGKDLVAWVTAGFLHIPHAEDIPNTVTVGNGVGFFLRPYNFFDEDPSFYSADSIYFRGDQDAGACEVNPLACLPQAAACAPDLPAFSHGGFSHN
In words: Human VAP-1 enzyme inhibition test. It counts as biochemical. Particulars: 1 h; compound 30 nM; 14C-benzylamine 100 μM; read-out: inhibition ratio (human VAP-1 enzyme). In short, it runs like this:
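Recombinant human VAP-1 pre-incubated 20 min at room temperature with compound in DMSO, then reacted with 14C-benzylamine (100 μM final) 1 h at 37 °C. Citric acid stop; oxidized product extracted into toluene/ethyl acetate and counted by liquid scintillation. Inhibition ratio relative to DMSO-only activity.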

In the case of `COCCON=C1CN(c2ncc(-c3cccc(COC(=O)NC(=N)N)c3F)cn2)C1` [Example 12, 2-Fluoro-3-(2-{3-[(2-methoxyethoxy)imino]azetidin-1-yl}pyrimidin-5-yl)benzyl carbamimidoylcarbamate], the inhibition in vivo at 0.3 mg/kg at Rat Plasma VAP-1 was not below 50%. In addition, on Human VAP-1 enzyme, the inhibition at 0.03 µM is not below 50%.
As for `COCC(CON=C1CN(c2ncc(-c3cccc(COC(=O)NC(=N)N)c3F)cn2)C1)OC(C)=O` (stereo not shown) [Example 20, 1-[({1-[5-(3-{[(Carbamimidoylcarbamoyl)oxy]methyl}-2-fluorophenyl)pyrimidin-2-yl]azetidin-3-ylidene}amino)oxy]-3-methoxypropan-2-yl acetate], the inhibition in vivo at 0.3 mg/kg at Rat Plasma VAP-1 is not below 50%. For the same compound, the inhibition at 0.03 µM on Human VAP-1 enzyme is not below 50%.
On to `CON=C1CN(c2ccc(-c3cccc(COC(=O)NC(=N)N)c3F)cn2)C1` [Example 41, 2-Fluoro-3-{6-[3-(methoxyimino)azetidin-1-yl]pyridin-3-yl}benzyl carbamimidoylcarbamate], for which the inhibition in vivo at 0.3 mg/kg on Rat Plasma VAP-1 was not below 50%. Also, at Human VAP-1 enzyme, the inhibition at 0.03 µM was not below 50%.
With `CON=C1CN(c2ncc(-c3cccc(COC(=O)NC(=N)N)c3F)cc2C)C1` [Example 42, 2-Fluoro-3-{6-[3-(methoxyimino)azetidin-1-yl]-5-methylpyridin-3-yl}benzyl carbamimidoylcarbamate], the inhibition in vivo at 0.3 mg/kg at Rat Plasma VAP-1 is not below 50%. Also, the inhibition at 0.03 µM on Human VAP-1 enzyme was not below 50%.
Regarding `CON=C1CCN(c2ncc(-c3cccc(COC(=O)NC(=N)N)c3F)cn2)CC1` [Example 51, 2-Fluoro-3-{2-[4-(methoxyimino)piperidin-1-yl]pyrimidin-5-yl}benzyl carbamimidoylcarbamate], at Rat Plasma VAP-1, the inhibition in vivo at 0.3 mg/kg is not below 50%.
Regarding `CCON=C1CCN(c2ncc(-c3cccc(COC(=O)NC(=N)N)c3F)cn2)CC1` [Example 53, 3-{2-[4-(Ethoxyimino)piperidin-1-yl]pyrimidin-5-yl}-2-fluorobenzyl carbamimidoylcarbamate], the inhibition in vivo at 0.3 mg/kg on Rat Plasma VAP-1 is not below 50%.
Turning to `N=C(N)NC(=O)OCc1cccc(-c2cnc(N3CCC(=NOCCOC4CCCCO4)CC3)nc2)c1F` (stereo not shown) [Example 57, 2-Fluoro-3-{2-[4-({2-[(tetrahydropyran-2-yl)oxy]ethoxy}imino)piperidin-1-yl]pyrimidin-5-yl}benzyl carbamimidoylcarbamate], the inhibition in vivo at 0.3 mg/kg at Rat Plasma VAP-1 is not below 50%. Besides, at Human VAP-1 enzyme, the inhibition at 0.03 µM is not below 50%.
`COCCON=C1CCN(c2ncc(-c3cccc(COC(=O)NC(=N)N)c3F)cn2)CC1` [Example 60, 2-Fluoro-3-(2-{4-[(2-methoxyethoxy)imino]piperidin-1-yl}pyrimidin-5-yl)benzyl carbamimidoylcarbamate]: the inhibition in vivo at 0.3 mg/kg on Rat Plasma VAP-1 was not below 50%. Moreover, the inhibition at 0.03 µM on Human VAP-1 enzyme is not below 50%.
For the compound `CC(=O)OCCON=C1CCN(c2ncc(-c3cccc(COC(=O)NC(=N)N)c3F)cn2)CC1` [Example 68, 2-[({1-[5-(3-{[(Carbamimidoylcarbamoyl)oxy]methyl}-2-fluorophenyl)pyrimidin-2-yl]piperidin-4-ylidene}amino)oxy]ethyl acetate], the inhibition in vivo at 0.3 mg/kg at Rat Plasma VAP-1 is not below 50%. The inhibition at 0.03 µM on Human VAP-1 enzyme is not below 50%.
Consider `CO/N=C1\CCN(c2ncc(-c3cccc(COC(=O)NC(=N)N)c3F)cn2)C1` [Example 69, (E/Z)-2-fluoro-3-{2-[3-(methoxyimino)pyrrolidin-1-yl]pyrimidin-5-yl}benzyl carbamimidoylcarbamate], for which, on Rat Plasma VAP-1, the inhibition in vivo at 0.3 mg/kg is not below 50%. Further, the inhibition at 0.03 µM at Human VAP-1 enzyme was not below 50%.
Regarding `N=C(N)NC(=O)OCc1cccc(-c2cnc(N3CC(=NO)C3)nc2)c1F` [Example 70, 2-Fluoro-3-{2-[3-(hydroxyimino)azetidin-1-yl]pyrimidin-5-yl}benzyl carbamimidoylcarbamate], the inhibition in vivo at 0.3 mg/kg at Rat Plasma VAP-1 is not below 50%. For the same compound, the inhibition at 0.03 µM on Human VAP-1 enzyme is not below 50%.
`N=C(N)NC(=O)OCc1cccc(-c2cnc(N3CC(=NOCCCO)C3)nc2)c1F` [Example 72, 2-Fluoro-3-(2-{3-[(3-hydroxypropoxy)imino]azetidin-1-yl}pyrimidin-5-yl)benzyl carbamimidoylcarbamate]: the inhibition in vivo at 0.3 mg/kg on Rat Plasma VAP-1 is not below 50%. For the same compound, the inhibition at 0.03 µM on Human VAP-1 enzyme is not below 50%.
For `N=C(N)NC(=O)OCc1cccc(-c2cnc(N3CC(=NOCC(CO)COC(=O)c4ccccc4)C3)nc2)c1F` (stereo not shown) [Example 83, 3-[({1-[5-(3-{[(Carbamimidoylcarbamoyl)oxy]methyl}-2-fluorophenyl)pyrimidin-2-yl]azetidin-3-ylidene}amino)oxy]-2-(hydroxymethyl)propyl benzoate], the inhibition in vivo at 0.3 mg/kg at Rat Plasma VAP-1 was not below 50%.
In the case of `N=C(N)NC(=O)OCc1cccc(-c2cnc(N3CCC(=NOCCO)CC3)nc2)c1F` [Example 85, 2-Fluoro-3-(2-{4-[(2-hydroxyethoxy)imino]piperidin-1-yl}pyrimidin-5-yl)benzyl carbamimidoylcarbamate], on Rat Plasma VAP-1, the inhibition in vivo at 0.3 mg/kg was not below 50%. In addition, the inhibition at 0.03 µM on Human VAP-1 enzyme was not below 50%.
Take `N=C(N)NC(=O)OCc1cccc(-c2cnc(N3CCC(=NOCCCO)CC3)nc2)c1F` [Example 86, 2-Fluoro-3-(2-{4-[(3-hydroxypropoxy)imino]piperidin-1-yl}pyrimidin-5-yl)benzyl carbamimidoylcarbamate hydrochloride]: the inhibition in vivo at 0.3 mg/kg at Rat Plasma VAP-1 was not below 50%. For the same compound, the inhibition at 0.03 µM on Human VAP-1 enzyme is not below 50%.
Take `N=C(N)NC(=O)OCc1cccc(-c2cnc(N3CCC(=NOCCCCO)CC3)nc2)c1F` [Example 87, 2-Fluoro-3-(2-{4-[(4-hydroxybutoxy)imino]piperidin-1-yl}pyrimidin-5-yl)benzyl carbamimidoylcarbamate hydrochloride]: at Rat Plasma VAP-1, the inhibition in vivo at 0.3 mg/kg is not below 50%. Moreover, the inhibition at 0.03 µM at Human VAP-1 enzyme is not below 50%.
Consider `CC(O)CON=C1CCN(c2ncc(-c3cccc(COC(=O)NC(=N)N)c3F)cn2)CC1` (stereo not shown) [Example 90, 2-Fluoro-3-(2-{4-[(2-hydroxypropoxy)imino]piperidin-1-yl}pyrimidin-5-yl)benzyl carbamimidoylcarbamate], for which, at Rat Plasma VAP-1, the inhibition in vivo at 0.3 mg/kg is not below 50%. The inhibition at 0.03 µM at Human VAP-1 enzyme is not below 50%.
As for `CC(CO)CON=C1CCN(c2ncc(-c3cccc(COC(=O)NC(=N)N)c3F)cn2)CC1` (stereo not shown) [Example 91, 2-Fluoro-3-(2-{4-[(3-hydroxy-2-methylpropoxy)imino]piperidin-1-yl}pyrimidin-5-yl)benzyl carbamimidoylcarbamate], at Rat Plasma VAP-1, the inhibition in vivo at 0.3 mg/kg is not below 50%. The inhibition at 0.03 µM on Human VAP-1 enzyme is not below 50%.
For `CCOC(=O)CCON=C1CCN(c2ncc(-c3cccc(COC(=O)NC(=N)N)c3F)cn2)CC1` [Example 149, Ethyl 3-[({1-[5-(3-{[(carbamimidoylcarbamoyl)oxy]methyl}-2-fluorophenyl)pyrimidin-2-yl]piperidin-4-ylidene}amino)oxy]propanoate], at Rat Plasma VAP-1, the inhibition in vivo at 0.3 mg/kg was not below 50%.
